Laboratory results as given in the NIST ThermoML archive (doi:10.1021/acs.jced.9b00074).
± gives the expanded uncertainty stated by the source.

Experiment: xn = mol fraction of the nth substance listed
Conditions: 100 kPa, Liquid; for viscosity: Falling or rolling sphere viscometry; for mass density: Vibrating tube method

## OC1CCCC1 [cyclopentanol] + C1C[C@@H]2[C@H]3CC[C@H](C3)[C@@H]2C1
293.15 K, x1 = 0.101
  viscosity: 3.091 ± 0.069 mPa·s
  mass density: 935.59 ± 0.66 kg/m3
293.15 K, x1 = 0.201
  viscosity: 3.26 ± 0.072 mPa·s
  mass density: 935.84 ± 0.63 kg/m3
293.15 K, x1 = 0.296
  viscosity: 3.471 ± 0.076 mPa·s
  mass density: 936.28 ± 0.61 kg/m3
293.15 K, x1 = 0.3962
  viscosity: 3.794 ± 0.083 mPa·s
  mass density: 937.08 ± 0.59 kg/m3
293.15 K, x1 = 0.5016
  viscosity: 4.304 ± 0.093 mPa·s
  mass density: 938.1 ± 0.58 kg/m3
293.15 K, x1 = 0.6017
  viscosity: 5.009 ± 0.11 mPa·s
  mass density: 939.39 ± 0.58 kg/m3
293.15 K, x1 = 0.7011
  viscosity: 5.976 ± 0.13 mPa·s
  mass density: 940.96 ± 0.57 kg/m3
293.15 K, x1 = 0.7968
  viscosity: 7.24 ± 0.15 mPa·s
  mass density: 942.64 ± 0.57 kg/m3
293.15 K, x1 = 0.9005
  viscosity: 9.125 ± 0.19 mPa·s
  mass density: 944.8 ± 0.57 kg/m3
298.15 K, x1 = 0.101
  viscosity: 2.829 ± 0.063 mPa·s
  mass density: 931.59 ± 0.66 kg/m3
298.15 K, x1 = 0.201
  viscosity: 2.917 ± 0.064 mPa·s
  mass density: 931.81 ± 0.63 kg/m3
298.15 K, x1 = 0.296
  viscosity: 3.093 ± 0.068 mPa·s
  mass density: 932.23 ± 0.61 kg/m3
298.15 K, x1 = 0.3962
  viscosity: 3.355 ± 0.073 mPa·s
  mass density: 932.99 ± 0.59 kg/m3
298.15 K, x1 = 0.5016
  viscosity: 3.762 ± 0.081 mPa·s
  mass density: 934 ± 0.58 kg/m3
298.15 K, x1 = 0.6017
  viscosity: 4.32 ± 0.093 mPa·s
  mass density: 935.27 ± 0.57 kg/m3
298.15 K, x1 = 0.7011
  viscosity: 5.083 ± 0.11 mPa·s
  mass density: 936.86 ± 0.57 kg/m3
298.15 K, x1 = 0.7968
  viscosity: 6.076 ± 0.13 mPa·s
  mass density: 938.57 ± 0.57 kg/m3
298.15 K, x1 = 0.9005
  viscosity: 7.555 ± 0.16 mPa·s
  mass density: 940.78 ± 0.57 kg/m3
303.15 K, x1 = 0.101
  viscosity: 2.564 ± 0.057 mPa·s
  mass density: 927.56 ± 0.65 kg/m3
303.15 K, x1 = 0.201
  viscosity: 2.623 ± 0.058 mPa·s
  mass density: 927.75 ± 0.63 kg/m3
303.15 K, x1 = 0.296
  viscosity: 2.774 ± 0.061 mPa·s
  mass density: 928.14 ± 0.61 kg/m3
303.15 K, x1 = 0.3962
  viscosity: 2.987 ± 0.065 mPa·s
  mass density: 928.88 ± 0.59 kg/m3
303.15 K, x1 = 0.5016
  viscosity: 3.316 ± 0.072 mPa·s
  mass density: 929.87 ± 0.58 kg/m3
303.15 K, x1 = 0.6017
  viscosity: 3.761 ± 0.081 mPa·s
  mass density: 931.12 ± 0.57 kg/m3
303.15 K, x1 = 0.7011
  viscosity: 4.367 ± 0.093 mPa·s
  mass density: 932.71 ± 0.57 kg/m3
303.15 K, x1 = 0.7968
  viscosity: 5.154 ± 0.11 mPa·s
  mass density: 934.45 ± 0.57 kg/m3
303.15 K, x1 = 0.9005
  viscosity: 6.316 ± 0.13 mPa·s
  mass density: 936.7 ± 0.57 kg/m3
308.15 K, x1 = 0.101
  viscosity: 2.329 ± 0.052 mPa·s
  mass density: 923.52 ± 0.65 kg/m3
308.15 K, x1 = 0.201
  viscosity: 2.376 ± 0.052 mPa·s
  mass density: 923.67 ± 0.62 kg/m3
308.15 K, x1 = 0.296
  viscosity: 2.499 ± 0.055 mPa·s
  mass density: 924.03 ± 0.6 kg/m3
308.15 K, x1 = 0.3962
  viscosity: 2.674 ± 0.058 mPa·s
  mass density: 924.74 ± 0.59 kg/m3
308.15 K, x1 = 0.5016
  viscosity: 2.941 ± 0.064 mPa·s
  mass density: 925.71 ± 0.58 kg/m3
308.15 K, x1 = 0.6017
  viscosity: 3.298 ± 0.071 mPa·s
  mass density: 926.94 ± 0.57 kg/m3
308.15 K, x1 = 0.7011
  viscosity: 3.78 ± 0.081 mPa·s
  mass density: 928.53 ± 0.57 kg/m3
308.15 K, x1 = 0.7968
  viscosity: 4.407 ± 0.094 mPa·s
  mass density: 930.28 ± 0.56 kg/m3
308.15 K, x1 = 0.9005
  viscosity: 5.324 ± 0.11 mPa·s
  mass density: 932.57 ± 0.56 kg/m3
313.15 K, x1 = 0.101
  viscosity: 2.122 ± 0.047 mPa·s
  mass density: 919.47 ± 0.65 kg/m3
313.15 K, x1 = 0.201
  viscosity: 2.156 ± 0.048 mPa·s
  mass density: 919.57 ± 0.62 kg/m3
313.15 K, x1 = 0.296
  viscosity: 2.261 ± 0.05 mPa·s
  mass density: 919.9 ± 0.6 kg/m3
313.15 K, x1 = 0.3962
  viscosity: 2.404 ± 0.052 mPa·s
  mass density: 920.57 ± 0.59 kg/m3
313.15 K, x1 = 0.5016
  viscosity: 2.62 ± 0.057 mPa·s
  mass density: 921.52 ± 0.57 kg/m3
313.15 K, x1 = 0.6017
  viscosity: 2.908 ± 0.062 mPa·s
  mass density: 922.73 ± 0.57 kg/m3
313.15 K, x1 = 0.7011
  viscosity: 3.296 ± 0.071 mPa·s
  mass density: 924.31 ± 0.56 kg/m3
313.15 K, x1 = 0.7968
  viscosity: 3.796 ± 0.081 mPa·s
  mass density: 926.07 ± 0.56 kg/m3
313.15 K, x1 = 0.9005
  viscosity: 4.527 ± 0.096 mPa·s
  mass density: 928.4 ± 0.56 kg/m3
318.15 K, x1 = 0.101
  viscosity: 1.94 ± 0.043 mPa·s
  mass density: 915.4 ± 0.65 kg/m3
318.15 K, x1 = 0.201
  viscosity: 1.965 ± 0.043 mPa·s
  mass density: 915.45 ± 0.62 kg/m3
318.15 K, x1 = 0.296
  viscosity: 2.053 ± 0.045 mPa·s
  mass density: 915.74 ± 0.6 kg/m3
318.15 K, x1 = 0.3962
  viscosity: 2.171 ± 0.047 mPa·s
  mass density: 916.37 ± 0.58 kg/m3
318.15 K, x1 = 0.5016
  viscosity: 2.348 ± 0.051 mPa·s
  mass density: 917.29 ± 0.57 kg/m3
318.15 K, x1 = 0.6017
  viscosity: 2.58 ± 0.055 mPa·s
  mass density: 918.48 ± 0.56 kg/m3
318.15 K, x1 = 0.7011
  viscosity: 2.893 ± 0.062 mPa·s
  mass density: 920.05 ± 0.56 kg/m3
318.15 K, x1 = 0.7968
  viscosity: 3.293 ± 0.07 mPa·s
  mass density: 921.82 ± 0.56 kg/m3
318.15 K, x1 = 0.9005
  viscosity: 3.878 ± 0.082 mPa·s
  mass density: 924.18 ± 0.56 kg/m3
323.15 K, x1 = 0.101
  viscosity: 1.779 ± 0.04 mPa·s
  mass density: 911.31 ± 0.64 kg/m3
323.15 K, x1 = 0.201
  viscosity: 1.799 ± 0.04 mPa·s
  mass density: 911.3 ± 0.62 kg/m3
323.15 K, x1 = 0.296
  viscosity: 1.871 ± 0.041 mPa·s
  mass density: 911.55 ± 0.6 kg/m3
323.15 K, x1 = 0.3962
  viscosity: 1.968 ± 0.043 mPa·s
  mass density: 912.15 ± 0.58 kg/m3
323.15 K, x1 = 0.5016
  viscosity: 2.112 ± 0.046 mPa·s
  mass density: 913.03 ± 0.57 kg/m3
323.15 K, x1 = 0.6017
  viscosity: 2.302 ± 0.049 mPa·s
  mass density: 914.19 ± 0.56 kg/m3
323.15 K, x1 = 0.7011
  viscosity: 2.554 ± 0.055 mPa·s
  mass density: 915.74 ± 0.56 kg/m3
323.15 K, x1 = 0.7968
  viscosity: 2.876 ± 0.061 mPa·s
  mass density: 917.51 ± 0.56 kg/m3
323.15 K, x1 = 0.9005
  viscosity: 3.346 ± 0.071 mPa·s
  mass density: 919.9 ± 0.56 kg/m3
328.15 K, x1 = 0.101
  viscosity: 1.639 ± 0.037 mPa·s
  mass density: 907.2 ± 0.64 kg/m3
328.15 K, x1 = 0.201
  viscosity: 1.65 ± 0.036 mPa·s
  mass density: 907.12 ± 0.61 kg/m3
328.15 K, x1 = 0.296
  viscosity: 1.711 ± 0.037 mPa·s
  mass density: 907.33 ± 0.59 kg/m3
328.15 K, x1 = 0.3962
  viscosity: 1.791 ± 0.039 mPa·s
  mass density: 907.88 ± 0.58 kg/m3
328.15 K, x1 = 0.5016
  viscosity: 1.908 ± 0.041 mPa·s
  mass density: 908.73 ± 0.57 kg/m3
328.15 K, x1 = 0.6017
  viscosity: 2.063 ± 0.044 mPa·s
  mass density: 909.87 ± 0.56 kg/m3
328.15 K, x1 = 0.7011
  viscosity: 2.268 ± 0.049 mPa·s
  mass density: 911.39 ± 0.56 kg/m3
328.15 K, x1 = 0.7968
  viscosity: 2.527 ± 0.054 mPa·s
  mass density: 913.16 ± 0.55 kg/m3
328.15 K, x1 = 0.9005
  viscosity: 2.906 ± 0.062 mPa·s
  mass density: 915.56 ± 0.55 kg/m3
333.15 K, x1 = 0.101
  viscosity: 1.514 ± 0.034 mPa·s
  mass density: 903.08 ± 0.64 kg/m3
333.15 K, x1 = 0.201
  viscosity: 1.521 ± 0.034 mPa·s
  mass density: 902.92 ± 0.61 kg/m3
333.15 K, x1 = 0.296
  viscosity: 1.569 ± 0.034 mPa·s
  mass density: 903.08 ± 0.59 kg/m3
333.15 K, x1 = 0.3962
  viscosity: 1.635 ± 0.036 mPa·s
  mass density: 903.59 ± 0.58 kg/m3
333.15 K, x1 = 0.5016
  viscosity: 1.732 ± 0.037 mPa·s
  mass density: 904.4 ± 0.56 kg/m3
333.15 K, x1 = 0.6017
  viscosity: 1.858 ± 0.04 mPa·s
  mass density: 905.5 ± 0.56 kg/m3
333.15 K, x1 = 0.7011
  viscosity: 2.023 ± 0.043 mPa·s
  mass density: 907 ± 0.55 kg/m3
333.15 K, x1 = 0.7968
  viscosity: 2.233 ± 0.048 mPa·s
  mass density: 908.75 ± 0.55 kg/m3
333.15 K, x1 = 0.9005
  viscosity: 2.54 ± 0.054 mPa·s
  mass density: 911.17 ± 0.55 kg/m3
